Positions of bridges follow the written chain, without caps; N, C: chain ends. Non-standard residues stand in square brackets, D forms with d. Residues, ends and D or L forms follow the SMILES beside them. No end group written: not given here. Aib = CC(C)(N)C(=O)O
What was measured:
[1] = animal experiment on anti-obesity effect of Example 1; assay type: in vivo; conditions: no details
[2] = biological target: human glucagon GLP-1 receptor (Homo sapiens, UniProt P43220); assay: cell-based
Method: Thereafter, the cells were incubated for 4 hours under conditions of a temperature of 37° C. in a CO2 incubator.

[3] = test system: obesity animal model (C57BL/6 mice, 60% high-fat diet); assay: blood glucose in obesity model, Examples 2 and 6 (Experimental Example 6); assay type: in vivo; conditions: 20 nmol/kg s.c. once every other day for 2 weeks; FIG. 5
Method: (§1) To check a preventing or therapeutic effect of the conjugates of Examples 2 and 6, which had different amino acid sequences, on obesity or diabetes, an animal model of obesity was prepared by feeding a 60% high-fat diet to normal C57BL/6 mice (approximately 6 weeks old) for approximately 24 weeks, and increasing the body weights of the mice to approximately 50 g in average. Thereafter, each of the conjugates of Examples 2 or 6 was administered by subcutaneous injection at a dose of 20 nmol/kg once every other day for 2 weeks. As the control, PBS was administered instead of the conjugates of Examples. For 2 weeks when the conjugates of Examples 2 or 6 were administered, changes in blood glucose with time were measured. Also, to perform an intraperitoneal glucose tolerance test (ipGTT), 2 g/kg of glucose was administered intraperitoneally after the 2-week administration of the drug, and changes in blood glucose with the elapse of time (0, 15, 30, 60, 90, and 120 minutes) were measured.

[4] = test system: obesity animal model (C57BL/6 mice, 60% high-fat diet); assay: ipGTT in obesity model, Examples 2 and 6 (Experimental Example 6); assay type: in vivo; conditions: 2 g/kg glucose i.p. after 2 weeks of 20 nmol/kg s.c. once every other day; FIG. 6
Method: as §1

Pancreatic lipase = biological target: T1, Pancreatic lipase (Homo sapiens, UniProt P16233); conditions: background statement; cited from earlier work
T1 sequence (P16233 17-465): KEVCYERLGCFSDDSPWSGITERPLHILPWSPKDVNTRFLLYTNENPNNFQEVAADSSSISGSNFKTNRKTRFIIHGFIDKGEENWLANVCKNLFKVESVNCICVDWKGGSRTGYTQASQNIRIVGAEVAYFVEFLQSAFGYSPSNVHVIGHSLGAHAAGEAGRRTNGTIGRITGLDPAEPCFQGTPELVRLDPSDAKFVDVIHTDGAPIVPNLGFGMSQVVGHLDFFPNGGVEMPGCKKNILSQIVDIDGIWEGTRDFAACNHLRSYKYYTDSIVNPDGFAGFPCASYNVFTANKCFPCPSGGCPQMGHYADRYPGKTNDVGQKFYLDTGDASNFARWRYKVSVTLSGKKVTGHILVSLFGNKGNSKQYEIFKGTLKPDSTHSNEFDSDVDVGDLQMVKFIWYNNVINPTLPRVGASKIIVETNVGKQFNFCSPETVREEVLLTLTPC

Chain of human glucagon GLP-1 receptor (P43220 24-463): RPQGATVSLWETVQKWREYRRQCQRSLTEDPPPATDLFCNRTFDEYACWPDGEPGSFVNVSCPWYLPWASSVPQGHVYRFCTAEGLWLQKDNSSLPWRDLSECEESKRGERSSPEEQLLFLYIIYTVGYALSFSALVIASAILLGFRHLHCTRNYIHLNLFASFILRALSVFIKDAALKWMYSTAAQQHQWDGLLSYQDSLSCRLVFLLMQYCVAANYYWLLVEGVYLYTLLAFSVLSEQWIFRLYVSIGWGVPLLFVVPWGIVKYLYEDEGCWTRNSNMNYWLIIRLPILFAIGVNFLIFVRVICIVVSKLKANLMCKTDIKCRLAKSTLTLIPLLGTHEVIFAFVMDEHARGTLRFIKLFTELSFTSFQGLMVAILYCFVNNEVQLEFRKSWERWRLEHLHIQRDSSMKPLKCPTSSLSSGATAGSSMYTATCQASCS

## CSCC[C@H](NC(=O)[C@H](CC(C)C)NC(=O)[C@H](Cc1c[nH]c2ccccc12)NC(=O)[C@H](CCC(N)=O)NC(=O)[C@@H](NC(=O)[C@H](Cc1ccccc1)NC(=O)[C@H](CCC(=O)O)NC(=O)[C@@H]1CCCCNC(=O)CC[C@H](NC(=O)[C@H](CC(=O)O)NC(=O)[C@H](CC(C)C)NC(=O)[C@H](Cc2ccc(O)cc2)NC(=O)[C@H](CCCCN)NC(=O)[C@H](CO)NC(=O)[C@H](Cc2ccc(O)cc2)NC(=O)[C@H](CC(=O)O)NC(=O)[C@H](CO)NC(=O)[C@@H](NC(=O)[C@H](Cc2ccccc2)NC(=O)[C@@H](NC(=O)CNC(=O)[C@H](CCC(N)=O)NC(=O)C(C)(C)NC(=O)[C@@H](N)Cc2c[nH]cn2)[C@@H](C)O)[C@@H](C)O)C(=O)N[C@@H](CCC(N)=O)C(=O)N[C@@H](C)C(=O)N[C@@H](C)C(=O)N1)C(C)C)C(=O)N[C@@H](CC(N)=O)C(=O)N[C@H](C(=O)N[C@@H](CS)C(=O)O)[C@@H](C)O [Example 1] (H-H[Aib]QGTFTSDYSKYLDEQAAKEFVQWLMNTC-OH; lactam 16-20 (inferred); N-terminus and C-terminus assumed)
[1]
  anti-obesity effect: had an anti-obesity effect
[2]
  EC50: 0.13 nM

## Example 6: Conjugate of polypeptide H(Aib)QGTFTSDYSKYLDEEAVKEFVQWLMNTC (SEQ ID NO. 4) and tri-branched mPEG-MAL (MW: 50 kDa) (H[Aib]QGTFTSDYSKYLDEEAVKEFVQWLMNTC; not fully specified (residue 30, bridges); printed as H(Aib)QGTFTSDYSKYLDEEAVKEFVQWLMNTC; also: conjugate with tri-branched mPEG-MAL 50 kDa)
[3]
  level of blood glucose vs control: a level of blood glucose was lowered
[4]
  increase in blood glucose in ipGTT vs control: an increase in blood glucose was significantly reduced

## CCCCCCCCCCC[C@@H](C[C@@H]1OC(=O)[C@H]1CCCCCC)OC(=O)[C@H](CC(C)C)NC=O [tetrahydrolipstatin (orlistat), tetrahydrolipstatin]
Pancreatic lipase
  inhibition of absorption of ingested fats: approximately 30%

Reference: patent US12338270B2, “Pharmaceutical composition comprising polypeptide” (D&D Pharmatech Inc., priority 2018, dated 2025)
